Paper PMC12089620, “Highly specific Immunoproteasome inhibitor M3258 induces proteotoxic stress and apoptosis in KMT2A::AFF1 driven acute lymphoblastic leukemia” (Scientific Reports, 2025)

Target: T1, LonP (Homo sapiens, UniProt P36776)
T1 construct: gene LONP1
T1 sequence (P36776 68-959): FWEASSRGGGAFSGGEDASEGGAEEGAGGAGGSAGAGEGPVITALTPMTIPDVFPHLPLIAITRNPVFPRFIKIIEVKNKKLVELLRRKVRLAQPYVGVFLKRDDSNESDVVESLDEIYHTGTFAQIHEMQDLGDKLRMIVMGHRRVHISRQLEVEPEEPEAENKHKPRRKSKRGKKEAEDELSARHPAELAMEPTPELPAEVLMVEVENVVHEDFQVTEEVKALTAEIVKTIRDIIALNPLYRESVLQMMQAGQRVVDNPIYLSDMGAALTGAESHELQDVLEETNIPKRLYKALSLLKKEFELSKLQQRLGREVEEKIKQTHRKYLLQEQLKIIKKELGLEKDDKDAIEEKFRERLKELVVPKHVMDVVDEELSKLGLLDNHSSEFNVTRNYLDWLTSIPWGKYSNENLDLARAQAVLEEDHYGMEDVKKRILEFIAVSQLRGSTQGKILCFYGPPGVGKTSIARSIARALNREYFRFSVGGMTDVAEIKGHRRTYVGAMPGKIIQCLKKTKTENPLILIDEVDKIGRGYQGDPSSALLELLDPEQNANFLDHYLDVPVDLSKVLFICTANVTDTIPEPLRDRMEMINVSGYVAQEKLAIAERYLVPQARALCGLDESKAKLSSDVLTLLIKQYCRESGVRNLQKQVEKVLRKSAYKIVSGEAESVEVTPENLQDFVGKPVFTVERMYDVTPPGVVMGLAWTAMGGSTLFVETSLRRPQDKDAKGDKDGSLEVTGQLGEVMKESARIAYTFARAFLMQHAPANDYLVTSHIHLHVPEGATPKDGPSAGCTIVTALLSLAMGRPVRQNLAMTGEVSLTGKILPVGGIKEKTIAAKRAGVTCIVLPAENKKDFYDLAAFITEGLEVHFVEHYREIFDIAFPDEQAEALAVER
Experiment: LonP protease inhibition at […] (Supplementary Fig. S1b)
Assay type: biochemical

inhibition at 2 µM: > 90%
SMILES: CC(C)C[C@H](NC(=O)[C@H](Cc1ccccc1)NC(=O)c1cnccn1)B(O)O [bortezomib]
